Data published in patent US20240208992A1, “MACROCYCLES AS CFTR MODULATORS” (Idorsia Pharmaceuticals Ltd, priority 2021, published 2024).

Molecular target: human F508del-CFTR (Homo sapiens, UniProt P13569, DEL508-508)
Assay: F508del-CFTR cell surface expression (corrector activity), DiscoveRx ß-galactosidase complementation chemiluminescence assay in recombinant U2OS cell line;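 note: U2OS cells co-expressing ProLink-tagged F508del-CFTR and a membrane-anchored enzyme acceptor, where more surface CFTR restores β-galactosidase activity measured by chemiluminescence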
Conditions: for EC50: EC50, F508del-CFTR cell surface expression; for Emax: U2OS
[1] = U2OS cell line, 16h compound incubation, geomean values
[2] = in relation to the Emax of the corrector lumacaftor (=100%), U2OS cell line, 16h compound incubation, arithmetic mean values
[3] = U2OS cells, 16h compound incubation, geomean of several measurements
[4] = in relation to the Emax of the corrector lumacaftor (=100%), U2OS cells, 16h compound incubation, arithmetic mean
[5] = U2OS cells, 16h compound incubation, geomean values
[6] = in relation to Emax of corrector lumacaftor (=100%), arithmetic mean values

Sequence of human F508del-CFTR (P13569 with tags, fused parts or gaps DEL508-508): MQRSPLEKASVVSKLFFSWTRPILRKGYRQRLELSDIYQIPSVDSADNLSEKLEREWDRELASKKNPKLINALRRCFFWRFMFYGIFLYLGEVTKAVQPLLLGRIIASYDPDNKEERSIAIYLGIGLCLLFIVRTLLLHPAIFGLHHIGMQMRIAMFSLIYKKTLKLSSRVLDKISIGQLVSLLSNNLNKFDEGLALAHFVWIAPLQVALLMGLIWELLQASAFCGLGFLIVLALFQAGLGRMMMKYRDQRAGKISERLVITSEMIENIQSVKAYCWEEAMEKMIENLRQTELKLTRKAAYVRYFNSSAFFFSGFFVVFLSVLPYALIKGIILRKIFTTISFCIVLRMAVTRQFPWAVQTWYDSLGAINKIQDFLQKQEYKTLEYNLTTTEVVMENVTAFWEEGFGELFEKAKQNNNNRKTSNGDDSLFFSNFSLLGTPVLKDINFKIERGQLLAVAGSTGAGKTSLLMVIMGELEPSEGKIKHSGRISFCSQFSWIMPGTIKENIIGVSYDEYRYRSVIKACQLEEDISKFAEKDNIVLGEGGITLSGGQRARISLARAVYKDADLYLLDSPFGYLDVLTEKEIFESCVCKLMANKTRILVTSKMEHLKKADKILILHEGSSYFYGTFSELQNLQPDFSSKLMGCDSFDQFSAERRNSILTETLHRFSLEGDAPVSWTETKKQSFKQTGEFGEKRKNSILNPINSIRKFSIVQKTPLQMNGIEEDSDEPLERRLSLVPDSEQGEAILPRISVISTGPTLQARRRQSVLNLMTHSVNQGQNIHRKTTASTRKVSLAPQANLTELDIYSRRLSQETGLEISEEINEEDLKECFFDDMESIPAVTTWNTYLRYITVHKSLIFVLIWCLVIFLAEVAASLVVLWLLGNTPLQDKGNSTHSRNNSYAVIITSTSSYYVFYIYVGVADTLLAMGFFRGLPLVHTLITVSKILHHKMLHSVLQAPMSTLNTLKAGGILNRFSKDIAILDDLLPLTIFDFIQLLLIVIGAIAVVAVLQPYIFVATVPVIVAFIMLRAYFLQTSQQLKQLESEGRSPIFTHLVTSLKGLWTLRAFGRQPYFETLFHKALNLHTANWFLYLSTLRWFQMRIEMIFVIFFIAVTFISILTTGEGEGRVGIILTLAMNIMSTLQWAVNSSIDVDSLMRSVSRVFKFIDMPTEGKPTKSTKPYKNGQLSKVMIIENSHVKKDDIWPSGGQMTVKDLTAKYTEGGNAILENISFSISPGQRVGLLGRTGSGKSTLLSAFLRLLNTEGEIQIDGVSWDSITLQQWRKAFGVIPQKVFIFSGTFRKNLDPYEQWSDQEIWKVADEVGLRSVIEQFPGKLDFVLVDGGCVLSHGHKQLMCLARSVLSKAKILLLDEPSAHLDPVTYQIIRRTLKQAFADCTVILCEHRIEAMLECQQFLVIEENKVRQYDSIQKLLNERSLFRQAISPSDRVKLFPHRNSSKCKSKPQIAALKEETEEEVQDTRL

Row | Compound | EC50 [1] | Emax [2] | Emax [6] | other results
1 | COc1cc2c(cc1OC)C(=O)N[C@H](C(=O)NCCc1ccc3c(c1)OCO3)CC(=O)N(C)[C@@H](CC1CC1)C(=O)N(CCC1CCCCC1)CC(=O)N[C@H](Cc1ccccc1)CO2 (racemic) [Example 9, (3R,9S,13RS)-N-(2-(benzo[d][1,3]dioxol-5-yl)ethyl)-3-benzyl-7-(2-cyclohexylethyl)-9-(cyclopropylmethyl)-17,18-dimethoxy-10-methyl-5,8,11,15-tetraoxo-2,3,4,5,6,7,8,9,10,11,12,13,14,15-tetradecahydrobenzo[p][1]oxa[4,7,10,14]tetraazacycloheptadecine-13-carboxamide] | 360 nM | 130% | – | –
2 | CN1C(=O)C[C@@H](C(=O)NCCc2ccc3c(c2)OCO3)NC(=O)c2c(ccc3ccccc23)OC[C@@H](Cc2ccccc2)NC(=O)CN(CC[C@H]2CCCCO2)C(=O)[C@@H]1CC1CCC1 [Example 361, (3S,7S,13R)-N-(2-(benzo[d][1,3]dioxol-5-yl)ethyl)-13-benzyl-7-(cyclobutylmethyl)-6-methyl-1,5,8,11-tetraoxo-9-(2-((R)-tetrahydro-2H-pyran-2-yl)ethyl)-1,2,3,4,5,6,7,8,9,10,11,12,13,14-tetradecahydronaphtho[1,2-p][1]oxa[4,7,10,14]tetraazacycloheptadecine-3-carboxamide] | 264 nM | 183% | – | –
3 | CC(C)C[C@H]1C(=O)N(C)[C@H](Cc2nc(-c3ccc(F)cn3)no2)C(=O)N[C@H](Cc2ccccc2)COc2cnc3ccc(F)cc3c2C(=O)N[C@H](C(=O)NCCc2noc(C3CC3)n2)CC(=O)N1C [Example 813, (3S,7S,10R,13R)-13-benzyl-N-(2-(5-cyclopropyl-1,2,4-oxadiazol-3-yl)ethyl)-20-fluoro-10-((3-(5-fluoropyridin-2-yl)-1,2,4-oxadiazol-5-yl)methyl)-7-isobutyl-6,9-dimethyl-1,5,8,11-tetraoxo-1,2,3,4,5,6,7,8,9,10,11,12,13,14-tetradecahydro-[1]oxa[4,7,10,14]tetraazacycloheptadecino[17,16-c]quinoline-3-carboxamide] | – | – | – | EC50 [3]: 110 nM; Emax [4]: 346%
4 | CC(C)C[C@H]1C(=O)N(C)[C@H](Cc2nc(-c3ccc(F)cn3)no2)C(=O)N[C@H](Cc2ccccc2)COc2ccc3ncc(F)cc3c2C(=O)N[C@H](C(=O)NCCc2nc(C3CC3)no2)CC(=O)N1C [Example 808, (3S,7S,10R,13R)-13-benzyl-N-(2-(3-cyclopropyl-1,2,4-oxadiazol-5-yl)ethyl)-20-fluoro-10-((3-(5-fluoropyridin-2-yl)-1,2,4-oxadiazol-5-yl)methyl)-7-isobutyl-6,9-dimethyl-1,5,8,11-tetraoxo-1,2,3,4,5,6,7,8,9,10,11,12,13,14-tetradecahydro-[1]oxa[4,7,10,14]tetraazacycloheptadecino[16,17-f]quinoline-3-carboxamide] | – | – | – | EC50 [3]: 116 nM; Emax [4]: 399%
5 | COc1nccc2c1C(=O)N[C@H](C(=O)NCCc1cc(C3CC3)no1)CC(=O)N(C)[C@@H](CC(C)C)C(=O)N1CC[C@@H](c3ccccc3)C[C@@H]1C(=O)N[C@H](Cc1ccccc1)CO2 [Example 672, (7S,11S,17aR,20R)-20-benzyl-N-(2-(3-cyclopropylisoxazol-5-yl)ethyl)-11-isobutyl-4-methoxy-10-methyl-5,9,12,18-tetraoxo-16-phenyl-5,6,7,8,9,10,11,12,15,16,17,17a,18,19,20,21-hexadecahydro-14H-dipyrido[2,1-f:3′,4′-p][1]oxa[4,7,10,14]tetraazacycloheptadecine-7-carboxamide] | – | – | 312% | EC50 [5]: 103 nM
6 | COc1cccc(CCNC(=O)[C@@H]2CC(=O)N(C)[C@@H](CC(C)C)C(=O)N3CCN(S(=O)(=O)c4ccccc4)C[C@@H]3C(=O)N[C@H](Cc3ccccc3)COc3ccc4ccccc4c3C(=O)N2)c1 [Example 729, (4aR,7R,18S,22S)-7-benzyl-22-isobutyl-N-(3-methoxyphenethyl)-21-methyl-5,16,20,23-tetraoxo-3-(phenylsulfonyl)-2,3,4,4a,5,6,7,8,16,17,18,19,20,21,22,23-hexadecahydro-1H-naphtho[1,2-p]pyrazino[2,1-f][1]oxa[4,7,10,14]tetraazacycloheptadecine-18-carboxamide] | – | – | 258% | EC50 [5]: 100 nM
7 | CC(C)C[C@H]1C(=O)N(CCC2CCCO2)CC(=O)N[C@H](Cc2ccccc2)COc2ccc3ccccc3c2C(=O)N[C@H](C(=O)NCCc2ccc3c(c2)OCO3)CC(=O)N1C (stereo partly drawn) [Example 332, (3S,7S,13R)-N-(2-(benzo[d][1,3]dioxol-5-yl)ethyl)-13-benzyl-7-isobutyl-6-methyl-1,5,8,11-tetraoxo-9-(2-(tetrahydrofuran-2-yl)ethyl)-1,2,3,4,5,6,7,8,9,10,11,12,13,14-tetradecahydronaphtho[1,2-p][1]oxa[4,7,10,14]tetraazacycloheptadecine-3-carboxamide] | 309 nM | 183% | – | –
8 | COc1cccc(CCNC(=O)[C@@H]2CC(=O)N(C)[C@@H](CC3CCCCC3)C(=O)N(CCC3CCCCC3)CC(=O)N[C@H](Cc3ccccc3)COc3ccc4ccccc4c3C(=O)N2)c1 (racemic) [Example 301, (3RS,7S,13R)-13-benzyl-9-(2-cyclohexylethyl)-7-(cyclohexylmethyl)-N-(3-methoxyphenethyl)-6-methyl-1,5,8,11-tetraoxo-1,2,3,4,5,6,7,8,9,10,11,12,13,14-tetradecahydronaphtho[1,2-p][1]oxa[4,7,10,14]tetraazacycloheptadecine-3-carboxamide] | – | 202% | – | –
9 | Cc1ccc(CCNC(=O)[C@@H]2CC(=O)N(C)[C@@H](CC(C)C)C(=O)N3CCOC[C@@H]3C(=O)N[C@H](Cc3ccccc3)COc3cnc4ccccc4c3C(=O)N2)cc1C [Example 61, (9S,13S,19aR,22R)-22-benzyl-N-(3,4-dimethylphenethyl)-13-isobutyl-12-methyl-7,11,14,20-tetraoxo-7,8,9,10,11,12,13,14,16,17,19,19a,20,21,22,23-hexadecahydro-[1,4]oxazino[3′,4′:6,7][1]oxa[4,7,10,14]tetraazacycloheptadecino[17,16-c]quinoline-9-carboxamide] | 421 nM | 202% | – | –
10 | CC(C)C[C@H]1C(=O)N2CCCC[C@@H]2C(=O)N[C@H](Cc2ccccc2)COc2ccc3ncc(F)cc3c2C(=O)N[C@H](C(=O)NCCn2ncc(C3CC3)n2)CC(=O)N1C [Example 778, (9S,13S,19aR,22R)-22-benzyl-N-(2-(4-cyclopropyl-2H-1,2,3-triazol-2-yl)ethyl)-5-fluoro-13-isobutyl-12-methyl-7,11,14,20-tetraoxo-7,8,9,10,11,12,13,14,17,18,19,19a,20,21,22,23-hexadecahydro-16H-pyrido[2′,11:6,7][1]oxa[4,7,10,14]tetraazacycloheptadecino[16,17-f]quinoline-9-carboxamide] | – | – | 302% | EC50 [5]: 141 nM
11 | COc1cccc2c1C(=O)N[C@H](C(=O)NCC[C@H]1CCCCO1)CC(=O)N(C)[C@@H](CC(C)C)C(=O)N(CCC1CCCCC1)CC(=O)N[C@H](Cc1ccccc1)CO2 (racemic) [Example 212, (3R,9S,13S)-3-benzyl-7-(2-cyclohexylethyl)-9-isobutyl-16-methoxy-10-methyl-5,8,11,15-tetraoxo-N-(2-((RS)-tetrahydro-2H-pyran-2-yl)ethyl)-2,3,4,5,6,7,8,9,10,11,12,13,14,15-tetradecahydrobenzo[p][1]oxa[4,7,10,14]tetraazacycloheptadecine-13-carboxamide] | 292 nM | 130% | – | –
12 | COc1cccc(CCNC(=O)[C@@H]2CC(=O)N(C)[C@@H](CC(C)C)C(=O)N(C)[C@@H](CO)C(=O)N[C@H](Cc3ccccc3)COc3ccc4ccccc4c3C(=O)N2)c1 (racemic) [Example 718, (3S,7S,10RS,13R)-13-benzyl-10-(hydroxymethyl)-7-isobutyl-N-(3-methoxyphenethyl)-6,9-dimethyl-1,5,8,11-tetraoxo-1,2,3,4,5,6,7,8,9,10,11,12,13,14-tetradecahydronaphtho[1,2-p][1]oxa[4,7,10,14]tetraazacycloheptadecine-3-carboxamide] | – | – | 272% | –
13 | COc1cccc(CCNC(=O)[C@@H]2CC(=O)N(C)[C@@H](CC(C)C)C(=O)N3CCN(C4CC4)C[C@@H]3C(=O)N[C@H](Cc3ccccc3)COc3ccc4nc(C)oc4c3C(=O)N2)c1 [Example 417, (8S,12S,18aR,21R)-21-benzyl-17-cyclopropyl-12-isobutyl-N-(3-methoxyphenethyl)-4,11-dimethyl-6,10,13,19-tetraoxo-6,7,8,9,10,11,12,13,16,17,18,18a,19,20,21,22-hexadecahydro-15H-oxazolo[4′,5′:5,6]benzo[1,2-p]pyrazino[2,1-f][1]oxa[4,7,10,14]tetraazacycloheptadecine-8-carboxamide] | – | – | 343% | EC50 [5]: 437 nM
14 | COc1cccc(CCNC(=O)[C@@H]2CC(=O)N(C)[C@@H](CC(C)C)C(=O)N(C)CC(=O)N[C@H](Cc3ccccc3)COc3cccc(F)c3C(=O)N2)c1 [Example 277, (3R,9S,13S)-3-benzyl-16-fluoro-9-isobutyl-N-(3-methoxyphenethyl)-7,10-dimethyl-5,8,11,15-tetraoxo-2,3,4,5,6,7,8,9,10,11,12,13,14,15-tetradecahydrobenzo[p][1]oxa[4,7,10,14]tetraazacycloheptadecine-13-carboxamide] | 830 nM | 134% | – | –
15 | COc1noc(CCNC(=O)[C@@H]2CC(=O)N(C)[C@@H](CC(C)C)C(=O)N(C)[C@H](CC(F)F)C(=O)N[C@H](Cc3ccccc3)COc3ccc4cnc(C)cc4c3C(=O)N2)n1 [Example 932, (3S,7S,10R,13R)-13-benzyl-10-(2,2-difluoroethyl)-7-isobutyl-N-(2-(3-methoxy-1,2,4-oxadiazol-5-yl)ethyl)-6,9,20-trimethyl-1,5,8,11-tetraoxo-1,2,3,4,5,6,7,8,9,10,11,12,13,14-tetradecahydro-[1]oxa[4,7,10,14]tetraazacycloheptadecino[16,17-f]isoquinoline-3-carboxamide] | – | – | – | EC50 [3]: 373 nM; Emax [4]: 491%
